Measurements taken from patent US8710198B2, “Caprazene as a novel compound and derivatives thereof, and caprazol as a novel compound and derivatives thereof” (Meiji Seika Pharma Co., Ltd., priority 2003, dated 2014).

What was measured:
Type in all cases: cell-based
[1] = system: Staphylococcus aureus FDA209P; test: Minimum growth inhibitory concentration on agar culture medium by serial dilution method (Japanese Society of Chemotherapy)
Procedure: (§1) Minimum growth inhibitory concentrations (mcg/ml) of caprazene-1′″-amide derivatives of the formula (II) against some of microorganisms were measured on an agar culture medium by a serial dilution method according to the standard method as provided by Japanese Society of Chemotherapy. For the cultivation of Mycobacterium smegmatis (one of […]), however, there was used an agar culture medium with the addition of 1% glycerine (the same applies to in the following tests).
(§2) Minimum growth inhibitory concentrations (mcg/ml) of some of the caprazene-1′″-ester derivative of the formula (III) against some of microorganisms were measured on an agar culture medium by a serial dilution method according to the standard method as provided by Japanese Society of Chemotherapy.
(§3) Minimum growth inhibitory concentrations (mcg/ml) of some of the caprazol-1′″-amide derivative of the formula (V) against a variety of microorganisms were measured on an agar medium by a serial dilution method according to the standard method as provided by Japanese Society of Chemotherapy.
as §3, with “caprazol-1′″-amide-3′″-ester” for “caprazol-1′″-amide”, “(VI)” for “(V)”
as §3, with “caprazol-3′″-ester derivative or caprazol-1′″-ester-3′″-ester” for “caprazol-1′″-amide”, “(VII)” for “(V)”
(§4) Minimum growth inhibitory concentrations (mcg/ml) of some of the derivative of the formula (VIII) against a variety of microorganisms were measured on an agar medium by a serial dilution method according to the standard method as provided by Japanese Society of Chemotherapy.

[2] = system: Micrococcus luteus FDA16; test: as above
Procedure: as §1, §2, §3
as §4, with “of the caprazol-1′″-amide-3′″-ester derivative of” for “of the derivative of”, “the formula (VI) against a” for “the formula (VIII) against a”
as §4, with “of the caprazol-3′″-ester derivative or caprazol-1′″-ester-3′″-ester derivative of” for “of the derivative of”, “the formula (VII) against a” for “the formula (VIII) against a”
as §4

[3] = system: Mycobacterium smegmatis ATCC607; test: Minimum growth inhibitory concentration on agar culture medium with 1% glycerine by serial dilution method; details: agar culture medium with the addition of 1% glycerine
Procedure: as §1, §2, §3
as §4, with “of the caprazol-1′″-amide-3′″-ester derivative of” for “of the derivative of”, “the formula (VI) against a” for “the formula (VIII) against a”
as §4, with “of the caprazol-3′″-ester derivative or caprazol-1′″-ester-3′″-ester derivative of” for “of the derivative of”, “the formula (VII) against a” for “the formula (VIII) against a”

Row | Structure (SMILES) | Minimum growth inhibitory concentration (mcg/ml) against bacteria Staphylococcus aureus FDA209P [1] | Minimum growth inhibitory concentration (mcg/ml) against bacteria Micrococcus luteus FDA16 [2] | Minimum growth inhibitory concentration (mcg/ml) against bacteria Mycobacterium smegmatis ATCC607 [3]
1 | CCCCCCCCCCCC(=O)OC1CN(C)C(C(OC2OC(CN)C(O)C2O)C2OC(n3ccc(=O)[nH]c3=O)C(O)C2O)C(=O)N(C)C1C(=O)OC (stereo not drawn) [Compound VII-G, caprazol-1′″-methyl-ester-3′″-dodecanoyl-ester Derivative] | >100 µg/mL | >100 µg/mL | 50 µg/mL
2 | CCCCCCCCCCCCNC(=O)C1=CCN(C)C(C(OC2OC(CN)C(O)C2O)C2OC(n3ccc(=O)[nH]c3=O)C(O)C2O)C(=O)N1C (stereo not drawn) [Compound II-G] | 3.13 µg/mL | 0.39 µg/mL | 0.39 µg/mL
3 | CCCCCCCCCCCCCCCNC(=O)C1=CCN(C)C(C(OC2OC(CNC(=O)OC(C)(C)C)C(O)C2O)C2OC(n3ccc(=O)[nH]c3=O)C(O)C2O)C(=O)N1C (stereo not drawn) [Compound II-J-N-Boc] | 12.5 µg/mL | 12.5 µg/mL | 25 µg/mL
4 | CCCCCCCCCCNC(=O)C1C(OC(=O)CCCCCCCCCC)CN(C)C(C(OC2OC(CN)C(O)C2O)C2OC(n3ccc(=O)[nH]c3=O)C(O)C2O)C(=O)N1C (stereo not drawn) [Compound VI-E] | 12.5 µg/mL | 6.25 µg/mL | 6.25 µg/mL
5 | CCCCCCCCCC(=O)OC1CN(C)C(C(OC2OC(CN)C(O)C2O)C2OC(n3ccc(=O)[nH]c3=O)C(O)C2O)C(=O)N(C)C1C(=O)O (stereo not drawn) [Compound VII-D] | 3.13 µg/mL | 3.13 µg/mL | 0.78 µg/mL
6 | CCCCCCCCCCCCCCNC(=O)C1=CCN(C)C(C(OC2OC(CN)C(O)C2O)C2OC(n3ccc(=O)[nH]c3=O)C(O)C2O)C(=O)N1C (stereo not drawn) [Compound II-I] | 3.13 µg/mL | 0.78 µg/mL | 0.78 µg/mL
7 | CCCCCCCCCNC(=O)C1=CCN(C)C(C(OC2OC(CN)C(O)C2O)C2OC(n3ccc(=O)[nH]c3=O)C(O)C2O)C(=O)N1C (stereo not drawn) [Compound II-D] | 6.25 µg/mL | 0.39 µg/mL | 3.13 µg/mL
8 | CN1C(=O)C(C(OC2OC(CN)C(O)C2O)C2OC(n3ccc(=O)[nH]c3=O)C(O)C2O)N(C)CC=C1C(=O)NC1CCCCCCCCCCC1 (stereo not drawn) [Compound II-Q] | 100 µg/mL | 0.20 µg/mL | 3.13 µg/mL
9 | CCCCCCCCCCCCCCCCCNC(=O)C1=CCN(C)C(C(OC2OC(CN)C(O)C2O)C2OC(n3ccc(=O)[nH]c3=O)C(O)C2O)C(=O)N1C (stereo not drawn) [Compound II-L] | 1.56 µg/mL | 1.56 µg/mL | 3.13 µg/mL
10 | CCCCCCCCNC(=O)C1C(OC(=O)CCCCCCCC)CN(C)C(C(OC2OC(CN)C(O)C2O)C2OC(n3ccc(=O)[nH]c3=O)C(O)C2O)C(=O)N1C (stereo not drawn) [Compound VI-C] | 12.5 µg/mL | 6.25 µg/mL | 6.25 µg/mL
11 | CCCCCCCCNC(=O)C1=CCN(C)C(C(OC2OC(CN)C(O)C2O)C2OC(n3ccc(=O)[nH]c3=O)C(O)C2O)C(=O)N1C (stereo not drawn) [Compound II-C] | 6.25 µg/mL | 0.78 µg/mL | 12.5 µg/mL
12 | CCCCCCCCCCCCNC(=O)C1C(OC(=O)CCCCCCCCCCC)CN(C)C(C(OC2OC(CN)C(O)C2O)C2OC(n3ccc(=O)[nH]c3=O)C(O)C2O)C(=O)N1C (stereo not drawn) [Compound VI-G, caprazol-1′″-dodecylamide-3′″-dodecanoylester derivative] | 25 µg/mL | 3.13 µg/mL | 6.25 µg/mL
13 | CCCCCCOc1ccc(NC(=O)C2=CCN(C)C(C(OC3OC(CN)C(O)C3O)C3OC(n4ccc(=O)[nH]c4=O)C(O)C3O)C(=O)N2C)cc1 (stereo not drawn) [Compound II-20] | 6.25 µg/mL | 0.39 µg/mL | 1.56 µg/mL
14 | CCCCCCCCCCCNC(=O)C1C(OC(=O)CCCCCCCCCCC)CN(C)C(C(OC2OC(CN)C(O)C2O)C2OC(n3ccc(=O)[nH]c3=O)C(O)C2O)C(=O)N1C (stereo not drawn) [Compound VI-F] | 12.5 µg/mL | 3.13 µg/mL | 6.25 µg/mL
15 | CCCCCCCCCCCCCNC(=O)C1=CCN(C)C(C(OC2OC(CNC(=O)OC(C)(C)C)C(O)C2O)C2OC(n3ccc(=O)[nH]c3=O)C(O)C2O)C(=O)N1C (stereo not drawn) [Compound II-H-N-Boc] | 25 µg/mL | 12.5 µg/mL | 25 µg/mL
16 | CCCCCCCCCOc1ccc(NC(=O)C2=CCN(C)C(C(OC3OC(CN)C(O)C3O)C3OC(n4ccc(=O)[nH]c4=O)C(O)C3O)C(=O)N2C)cc1 (stereo not drawn) [Compound II-23] | 1.56 µg/mL | 0.39 µg/mL | 0.78 µg/mL
17 | CCCCCc1ccc(NC(=O)C2=CCN(C)C(C(OC3OC(CN)C(O)C3O)C3OC(n4ccc(=O)[nH]c4=O)C(O)C3O)C(=O)N2C)cc1 (stereo not drawn) [Compound II-5] | 3.13 µg/mL | 0.2 µg/mL | 3.13 µg/mL
18 | CCCCCCCCCCCC(=O)OC1CN(C)C(C(OC2OC(CN)C(O)C2O)C2OC(n3ccc(=O)[nH]c3=O)C(O)C2O)C(=O)N(C)C1C(=O)NC1CCCCCCCCCCC1 (stereo not drawn) [Compound VI-Q] | 12.5 µg/mL | 3.13 µg/mL | 6.25 µg/mL
19 | CCCCCCCCC=CCCCCCCCCNC(=O)C1C(OC(=O)CCCCCCCCCCC)CN(C)C(C(OC2OC(CN)C(O)C2O)C2OC(n3ccc(=O)[nH]c3=O)C(O)C2O)C(=O)N1C (stereo not drawn) [Compound VI-R] | 25 µg/mL | 3.13 µg/mL | 6.25 µg/mL
20 | CCCCCCCCCCCCCOC(=O)C1=CCN(C)C(C(OC2OC(CN)C(O)C2O)C2OC(n3ccc(=O)[nH]c3=O)C(O)C2O)C(=O)N1C (stereo not drawn) [Compound III-BB] | 3.13 µg/mL | 3.13 µg/mL | 12.5 µg/mL
21 | CCCCCCCCCCCCCCCCCCCCCNC(=O)C1=CCN(C)C(C(OC2OC(CN)C(O)C2O)C2OC(n3ccc(=O)[nH]c3=O)C(O)C2O)C(=O)N1C (stereo not drawn) [Compound II-P] | 6.25 µg/mL | 3.13 µg/mL | 50 µg/mL
22 | CCCCCCCCCCCCCCCCNC(=O)C1=CCN(C)C(C(OC2OC(CN)C(O)C2O)C2OC(n3ccc(=O)[nH]c3=O)C(O)C2O)C(=O)N1C (stereo not drawn) [Compound II-K] | 3.13 µg/mL | 0.78 µg/mL | 3.13 µg/mL
23 | CCCCCCNC(=O)C1C(O)CN(C)C(C(OC2OC(CN)C(O)C2O)C2OC(n3ccc(=O)[nH]c3=O)C(O)C2O)C(=O)N1C (stereo not drawn) [Compound V-A] | 50 µg/mL | 50 µg/mL | 12.5 µg/mL
